In PubChem BioAssay (NCI) one finds GI50 and TGI data, which are given here for 41 compounds.

The test system of the experiment is MDA-MB-468 breast. Description: inhibition of tumour cell growth, NCI panel, 48 h.

Several values for one entry are separate records, joined by “and”; a condition that tells them apart may be missing. Equal values may be shown once.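 Briefly, cells in 96-well plates were exposed to five compound concentrations for 48 h, and endpoints were estimated by linear interpolation. Abbreviation: GI50, concentration required for 50% inhibition of growth. The concentration for full growth arrest is given as TGI.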 Where only a bound is given, the exact number is not on record here.

Turning to `Cc1nnc(Nc2ccc(NC(=O)Nc3ccc(Cl)cc3)cc2)c2ccccc12`, the GI50 was 2.84 µM and the TGI is 7.43 µM.

Take `CCOC(=O)Nc1cc2c(c(N)n1)N=C(c1ccccc1)CO2`: the GI50 was 0.0427 µM and the TGI amounted to 0.394 µM.

As to `CN1CCN(c2ccc(Nc3cc(-c4cccc(-n5ccc6cc(C7CC7)cc(F)c6c5=O)c4CO)cn(C)c3=O)nc2)CC1`, the GI50 is 3.15 µM and the TGI is 17.1 µM.

Take `CN(C)C1CCN(C(=O)c2ccc(NC(=O)Nc3ccc(-c4nc(N5CCOCC5)c5cccn5n4)cc3)cc2)CC1`: the GI50 was 0.0186 µM and the TGI stood at 0.0866 µM.

For the compound `NC(=O)c1c(NC(=O)c2ccccc2)sc2c1CCC(=O)C2`, the GI50 is 2.46 µM and the TGI was determined as 6.59 µM.

Regarding `CN(C)CCCNc1c2ccc(Cl)cc2nc2c1oc1ccc(Cl)cc12`, the GI50 is 8.02 µM and the TGI came to 21.8 µM.

As to `COc1ccc(-c2nnc3n(C)c(=O)c4ccccc4n23)cc1N`, the GI50 was 2.33 µM and the TGI is over 100 µM.

As for `CCN1CCN(c2cc(C)c3cc(NC(=O)c4ccc(OC)c(OC)c4)ccc3n2)CC1`, the GI50 is 17.7 µM and the TGI was over 100 µM.

For `O=C(Cc1ccc(F)c(Cl)c1)Nc1cc(C2(C(F)(F)F)CC2)nn1CC1CCCCC1`, the GI50 is 2.68 µM and the TGI is 9.28 µM.

As to `C[n+]1c(/C=C/c2c(O)ccc3ccccc23)ccc2ccccc21`, the GI50 is 1.46 µM and the TGI came to 7.08 µM.

With `COC(=O)c1c2c(c(C)[n+]([O-])c1C)C(=O)C=C(NCc1ccc(F)cc1)C2=O`, the GI50 is 0.284 µM and the TGI was 0.978 µM.

Turning to `Nc1ncn([C@@H]2O[C@H](CO)[C@@H](O)[C@H]2O)c(=O)n1`, the GI50 was 1.03 µM and the TGI was determined as 5.34 µM.

On to `CN(C)CC[C@H](CSc1ccccc1)Nc1ccc(S(=O)(=O)NC(=O)c2ccc(N3CCN(Cc4ccccc4-c4ccc(Cl)cc4)CC3)cc2)cc1[N+](=O)[O-]`, for which the GI50 is 1.38 µM and the TGI was determined as 3.65 µM.

For `Cc1nc(Nc2cccnc2)sc1C(=O)/C=C/c1ccc(F)cc1`, the GI50 is 3.22 µM and the TGI worked out at 11.1 µM.

`C[C@@H]1C[C@@H]([C@@H](CC2CC(=O)NC(=O)C2)OC(=O)CC(=O)c2ccccc2)C(=O)[C@@H](C)C1`: the GI50 was 1.17 µM and the TGI is over 100 µM.

For the compound `O=C(NC[C@H](O)CN1CCc2ccccc2C1)c1cc(NC2COC2)ncn1`, the GI50 is 4.25 µM and the TGI amounted to 24.5 µM.

As to `COC(=O)[C@]12CC[C@@H](C)[C@H](C)[C@@H]1C1=CC[C@@H]3[C@@]4(C)C[C@@H](O)[C@H](O)[C@@](C)(CO)C4=CC[C@@]3(C)[C@]1(C)CC2`, the GI50 is 14.2 µM and the TGI came to 29.7 µM.

Turning to `O=c1oc2ccc(-c3ccc(F)cc3F)cc2c(=O)n1-c1cccc(C(F)(F)F)c1`, the GI50 is 2.28 µM and 1.13 µM; the TGI was 5.83 µM and 3.43 µM.

For `O=C(Nc1ccc(Br)cc1F)c1cc(Cl)ccc1O`, the GI50 is 0.871 µM and the TGI is 4.78 µM.

For the compound `NC(N)=N/N=C/c1c(Cl)cccc1Cl`, the GI50 was 12.4 µM and the TGI amounted to 26.5 µM.

For the compound `O=C(Nc1cc(C(F)(F)F)cc(C(F)(F)F)c1)c1cc(Cl)ccc1O`, the GI50 is 0.195 µM and 0.238 µM; the TGI was 0.715 µM and 0.799 µM.

In the case of `Cc1cc(N[C@@H]2CCC[C@H](Nc3ccnc4cc(Cl)ccc34)C2)nc(N2CCCCCC2)n1`, the GI50 was 1.4 µM and the TGI stood at 3.11 µM.

As to `O=C(/C=C/c1ccc[nH]1)c1ccc(-n2ccc(C(F)(F)F)n2)cc1`, the GI50 is over 54.6 µM and the TGI is over 100 µM.

Take `COc1cc(N=Nc2ccc(O)c3ncccc23)c2ncccc2c1`: the GI50 is 2.27 µM and the TGI stood at 6.64 µM.

Turning to `Clc1cc2c(c(CSc3nc4ccccc4n4cccc34)c1)OCOC2`, the GI50 is 2.16 µM and the TGI is over 100 µM.

Turning to `CC(=O)ON1CCCC(P(=O)(OCCSC(=O)C(C)(C)C)OCCSC(=O)C(C)(C)C)C1=O` (configuration not stated), the GI50 was 2.67 µM and the TGI worked out at 23.6 µM.

In the case of `COc1cnc2c(c1)C(=O)c1c-2n(CCCN2CCOCC2)c(=O)c2cc(Cl)ccc12`, the GI50 was 0.183 µM and the TGI is 0.544 µM.

As for `CC(NCCC(c1ccccc1)c1ccccc1)c1ccccc1` (configuration not stated), the GI50 was 1.3 µM and the TGI was found to be 2.64 µM.

Consider `COc1cnc2c(c1)C(=O)c1c-2n(CCCNC2=NCCS2)c(=O)c2cc([N+](=O)[O-])ccc12`, for which the GI50 was 0.0283 µM and the TGI amounted to 1.53 µM.

`CCc1cc(OC(=O)N2CCC(N3CCCCC3)CC2)ccc1Nc1cc(-c2ccc(-n3cccn3)cc2)[nH]n1`: the GI50 was 1.74 µM and the TGI is 3.65 µM.

Regarding `CCOC(=O)N[C@H]1CCc2cc(OC)c(OC)c(OC)c2-c2ccc(SC)c(=O)cc21`, the GI50 was under 0.01 µM and the TGI was over 21.3 µM.

Regarding `Nc1ncc(-c2ccc3ncnc(Nc4ccc(F)c(Cl)c4)c3c2)cn1`, the GI50 was 0.229 µM and the TGI amounted to 0.833 µM.

As to `CNCCOC(=O)/C=C1\CC[C@H]2[C@@H]([C@@H](O)C(=O)[C@@H]3[C@]2(C)CC[C@H](O)[C@]3(C)C(=O)OC)[C@H]1C`, the GI50 is 1.44 µM and the TGI is 3.69 µM.

For `C[C@@H](Nc1c(C#N)cnc2ccc(-c3cnc(Cl)c(NS(C)(=O)=O)c3)cc12)c1ccccc1`, the GI50 was 0.0745 µM and the TGI was 1.23 µM.

For `COc1ccc2nc3ccccc3c(NCc3ccc(F)cc3)c2c1`, the GI50 was 1.07 µM and the TGI was determined as 2.93 µM.

Consider `O=[N+]([O-])c1ccc(-c2nnc(SCc3ccc(O)c4ncccc34)n2-c2ccccc2)cc1`, for which the GI50 was 0.577 µM and the TGI was determined as 4.46 µM.

For the compound `N=c1c2c(-c3ccccc3)c(-c3ccccc3)n(Cc3ccccc3)c2ncn1C1CCC(O)CC1` (configuration not stated), the GI50 was 0.631 µM and the TGI is 3.23 µM.

`COc1cc(Cl)cc(-c2nn(-c3cccc(NC(=O)c4ccc(N5CCOCC5)c(C(F)(F)F)c4)c3)cc2-c2ccncc2)c1`: the GI50 is 12.1 µM and the TGI is over 100 µM.

For `N#Cc1nn(-c2cc(=O)[nH]c3ccc(Cl)cc23)c(N)c1C#N`, the GI50 is over 100 µM and the TGI was over 100 µM.

Take `CCn1c(O)c(/C=N/NC(=O)C(C)c2ccc(CC(C)C)cc2)sc1=S` (configuration not stated): the GI50 is 0.378 µM and the TGI came out at 12 µM.

On to `CC(C)(/C=C(\C#N)C(=O)N1CCC[C@@H](n2nc(-c3ccc(Oc4ccccc4)cc3F)c3c(N)ncnc32)C1)N1CCN(C2COC2)CC1`, for which the GI50 is 3.63 µM and the TGI worked out at 14.9 µM.
